The values below come from patent publication US4845292A, “Hydroxy containing amines as phospholipase A2 inhibitors” (American Home Products Corporation, priority 1988, dated 1989).

Structures can show the parent of a compound that is named as a salt.

One experiment concerns the target T1, human platelet PLA2 (Homo sapiens, UniProt P14555).
T1 sequence (P14555 21-144): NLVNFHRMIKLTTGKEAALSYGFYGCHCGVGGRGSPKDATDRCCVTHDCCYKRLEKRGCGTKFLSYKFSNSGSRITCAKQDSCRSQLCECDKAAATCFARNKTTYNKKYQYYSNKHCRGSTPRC
The experiment is described as follows: Inhibition of cell free human platelet PLA2 (hydrolysis of [3H]-AA labelled E. coli phospholipids). It is filed as biochemical. The conditions noted are these: Table 1; compounds of the invention; human platelet PLA2, pH 7.4, 37° C., 30 minutes. Here is the method:
The ability of the compounds of the invention to inhibit the activity of cell free human platelet PLA2 enzyme is measured in the following in vitro assay.
(§1) The assay is carried out as follows:
E. coli, cultured to exponential growth, are sedimented for 15 minutes at 10,000 g and resuspended in sterile isotonic saline (1-3 ml). 10-25 μCi uniformly labeled [^3 H]-arachidonic acid (AA) is added to a sterile flask, evaporated by N2 and resolubilized with 0.3 ml 20% fatty acid-free bovine serum albumen (BSA). 75-100 ml of nutrient broth and 1 ml E. coli are then added to each flask and incubated for 2-3 hours at 37° C. [^3 H]-AA labelled E. coli are then sedimented, suspended in saline and added to fresh nutrient broth and incubated for 1.5 hours at 37° C. to complete [^3 H]-AA incorporation into the phospholipids. After overnight refrigeration of cultures, E. coli are again sedimented, suspended in saline and autoclaved for 15 minutes at 120° C. E. coli cultures are washed twice with saline (first wash contains 1% BSA) and resuspended in saline. Non-labelled E. coli cultures are also prepared in the same manner. Cell number is determined by measuring the optical density at 550 nm ([…]=1 O.D.). The amount of radioactivity associated with cells is determined by counting a defined volume of cell suspension. The specific activity is subsequently adjusted by adding non-labelled E. coli to yield 10,000 cpm/10 […] of E. coli/25 ml.
Platelet PLA2 Preparation
Expired human platelets from the blood bank are centrifuged for 15 minutes at 200 g to obtain a platelet rich fraction and to remove the red blood cells. Platelets are sedimented for 15 minutes at 2500 g and the plasma is removed before adding cold 0.18N H2 SO4 (4ml/unit). Platelets are homogenized, incubated for 1 hour at 4° C., homogenized again and centrifuged for 15 minutes at 10,000 g. The PLA2 enriched supernatant fluid is removed and the amount of protein is determined by the Lowry method. The preparation is divided into various portions and stored at -20° C.
The assay measures the hydrolysis of E. coli membrane phospholipids via the release of free [^3 H]-AA from the C-2 position of phospholipids by human platelet PLA2. To ice cold 15×100 mm test tubes, the following additions are made; 2.5×10^8 E. coli (equivalent to 5 nmol phospholipid), 5 mM Ca^++, 100 mM Tris buffer (pH=7.4), 100 μg platelet extract (or an amount to produce 20-30% hydrolysis), drug or vehicle. Incubations are carried out at 37° C. in a shaking water bath for 30 minutes. The reaction is terminated by the addition of 2 volumes of tetrahydrofuran (THF) and the mixture is vortexed. Hydrolyzed [^3 H]-AA is separated from unhydrolyzed phospholipid by solid phase extraction using Bond elute NH2 columns (Analytichem Internat.). Columns are conditioned with 0.5 ml THF followed by 0.5 ml THF:H2 O (2.0:0.1 ml/v/v). Samples are loaded onto columns and hydrolyzed [^ 3 H]-AA is eluted with 1 ml THF:glacial acetic acid (98.0:2.0 ml v/v). The eluant is transferred to vials, 10 ml Optifluor is added and the radioactivity is determined by liquid scintillation counting.
Treatments are corrected for non-enzymatic hydrolysis by subtracting the dpms in treatments containing no enzyme Mean [^3 H]-AA dpm is determined and a percent inhibition relative to vehicle treated samples is calculated.
The percent hydrolysis is calculated by the following equation: [formula]

For experiment [1], the system named is synthesis of TxB2 by rat glycogen-elicited polymorphonuclear leukocytes. The experiment is described as follows: Inhibition of synthesis of the cyclooxygenase product TxB2 (procedure of Example 7). The conditions noted are these: Leukocyte, rat PMN, A23187 stimulated; for inhibition at 10 µM: Table 3, at 10 μM. The format is cell-based. As to the method:
(§2) Rat polymorphonuclear leukocytes (PMNs) are obtained from female Wistar rats (150.200 g) which receive an injection of 6% glycogen (10 ml i.p.). Rats are sacrificed 18-24 hours post injection by CO2 asphyxiation and the elicited cells are harvested by peritoneal lavage using physiological saline (0.9% NaCl). The exudate is centrifuged at 400×g for 10 minutes. The supernatant fluid is discarded and the cell pellet is resuspended to a concentration of 2.0×10^7 cells/ml in HBSS containing Ca^++ and Mg^++ and 10 μM L-cysteine.
(§3) To 1 ml aliquots of cell suspension, test drugs or vehicle are added, then preincubated at 37° C. for 10 minutes. A23187 (1 μM), [^3 H]-AA (3.0 μCi/ml) and unlabeled AA (1 μM) are then added and the samples are further incubated for 10 minutes. The reaction is terminated by centrifugation and pelleting cells. Supernatants are then analyzed by HPLC analysis on a 15 cm×4.6 mm ID Supelcosil LC-18 (Supelco)(3M) column, using a two solvent system at a flow rate of 1.4 ml total flow as follows:
(§4) Injections: 150 μl of each supernatant is injected directly onto column and ^3 H arachidonic acid metabolites are monitored using an on-line radioactivity detector (Ramona, IN/US, Fairfield, NJ).
(§5) Results are expressed as percent inhibition at a given compound dose.
In this assay, the procedure of Example 7 is carried out as described. However, in order to determine cyclooxygenase activity, the samples are co-chromatographed with authentic reference [^3 H]-TxB2.
The results are calculated as in Example 7 and presented below: […]

The test system of experiment [2] is synthesis of LTB4 by rat glycogen-elicited polymorphonuclear leukocytes (PMN). The experiment is described as follows: Inhibition of LTB4 synthesis by rat glycogen-elicited polymorphonuclear leukocytes in the presence of exogenous substrate. The format is cell-based. The conditions noted are these: Leukocyte, A23187 stimulated; for inhibition at 10 µM: Table 2, at 10 μM.
Description: This is especially true with respect to 5,12-diHETE, which is also denoted as LTB4 [see Ford-Hitchinson, J. Roy. Soc. Med., 74, 831 (1981)]. Compounds which inhibit the PLA2 -mediated release of arachidonic acid thereby effectively prevent the oxidation of arachidonic acid to the various leukotriene products via the lipoxygenase cascade. Accordingly, the specificity of action of PLA2 inhibitors can be determined by the activity of test compounds in this assay, which measures the ability of compounds to inhibit the synthesis of LTB4 by rat glycogen-elicited polymorphonuclear leukocytes (PMN) in the presence of exogenous substrate.
as §1, §2, §3
Gradient: (system is equillibrated with Solvent A)
Percent solvent changes are accomplished in a linear fashion.
as §4
Standards: 10^4 -2.0×10^4 dpm of eicosanoids of interest are injected in 90 μl EtOH cocktail.
Co-chromatography with standard [^3 H] leukotriene B4 (LTB4) in medium of stimulated PMN exposed to drug is compared to that found in medium of stimulated cells exposed to no drug, generating percent inhibition.
as §5

The subject of experiment [3] is rat carrageenan paw edema. The experiment is described as follows: Rat carrageenan paw edema. The following applies: for % Inhibition at 50 mg/kg (peroral): Table 5, 1 hour prior to carrageenan, edema at 3 hours; for ED50: Rattus norvegicus, po, 3 h, read-out: Oral ED50 (95% C.L.). It is filed as in vivo, rat (Sprague-Dawley). As to the method:
The compounds in the scope of the invention are further tested in the rat carrageenan paw edema to determine their ability to inhibit the acute inflammatory response. This assay is carried out as follows: […] male Sprague-Dawley rats, in groups of 6 animals are injected subcutaneously in the right paw with 0.1 ml of 1% carrageenan at zero time. Mercury plethysmographic readings (ml) of the paw are made at zero times and 3 hours later. Test compounds are suspended or dissolved in 0.5% methylcellulose and given perorally 1 hour prior to carrageenan administration. The increase in paw volume (edema in ml.) produced by the carrageenan is measured. […] Unpaired Student's t-test is used to determine statistical significance.
(Carrageenan injected into the paw causes an acute inflammation.)

In the case of `CCCCCCCCCCCCCCCCCCNC(CO)CCCC.Cl` (centres unmarked) [Example 1, 2-(Octadecylamino)-1-hexanol, hydrochloride], on human platelet PLA2, the IC50 (as a rule, the concentration needed to halve the response being measured) worked out at 12 µM. Besides, the inhibition – broadly, the drop in the measured response relative to a control, in per cent – at 10 µM in experiment [1] worked out at 26%; in experiment [2] it was 24%. Also, the % Inhibition – broadly, the percentage by which the read-out fell short of the control – at 50 mg/kg (peroral) in experiment [3] was determined as 26%.

At human platelet PLA2, `COC(=O)C1CCCN1CCCCCCCCCCCOc1ccccc1` (racemic) [Example 3b, 1-(11-Phenoxyundecyl)-DL-proline methyl ester, hydrochloride] yielded an IC50 of 63 µM.

For `CCOC(CNCCCCCCCCCCCOc1ccccc1)OCC.Cl` [Example 4, N-(2,2-diethoxyethyl)-11-phenoxyundecanamine, hydrochloride], the IC50 at human platelet PLA2 amounted to 33 µM. Also, the “% Inhibition at 50 mg/kg (peroral)” value in experiment [3] is 34%.

In the case of `CCCCC(CO)NCCCCCCc1ccccc1.Cl` (centres unmarked) [Example 2c, 2-[(6-Phenylhexyl)amino]-1-hexanol, hydrochloride], the IC50 at human platelet PLA2 was > 100 µM. The inhibition at 10 µM in experiment [1] amounted to 24%; in experiment [2] it was 16%. Moreover, the “% Inhibition at 50 mg/kg (peroral)” value in experiment [3] was found to be 34%.

Turning to `CC(=O)Oc1ccccc1C(=O)O` [Aspirin, reference compound], in experiment [3], the 50% effective dose (ED50) – broadly, the midpoint of the dose-response relation – turned out to be 145 mg/kg.

Compound `CCCCC(CO)NCCCCCCCCCCc1ccccc1.Cl` (centres unmarked) [Example 2a, 2-[(10-Phenyldecyl)amino]-1-hexanol, hydrochloride] came in with a half-inhibitory concentration (IC50) at human platelet PLA2 of 19 µM. For the same compound, the inhibition at 10 µM amounted to 73% in experiment [1] and 89% in experiment [2]. In experiment [3], the “% Inhibition at 50 mg/kg (peroral)” value is 39%.

Take `Cl.OC[C@@H]1CCCN1CCCCCCCCCCCOc1ccccc1` [Example 3a, (S)-1-(11-phenoxyundecyl)-2-pyrrolidinemethanol, hydrochloride]: at human platelet PLA2, the IC50 worked out at 17 µM. In addition, the inhibition at 10 µM in experiment [1] was 37%; in experiment [2], 0%. In addition, the “% Inhibition at 50 mg/kg (peroral)” value in experiment [3] worked out at 26%.

Consider `CCCC[C@@H](CO)NCCCCCCCCc1ccccc1.Cl` [Example 2b, (S)-2[(8-Phenyloctyl)amino]-1-hexanol, hydrochloride], for which, on human platelet PLA2, the half-maximal inhibitory concentration (IC50) turned out to be 45 µM. For the same compound, the inhibition at 5 µM in experiment [1] (Table 3, at 5 μM) came to 0%; in experiment [2] (Table 2, at 5 μM), 52%. Moreover, the “% Inhibition at 50 mg/kg (peroral)” value in experiment [3] is reported as 25%.

As to `COc1ccc2c(c1)c(CC(=O)O)c(C)n2C(=O)c1ccc(Cl)cc1` [Indomethacin, reference compound], the 50% effective dose (ED50) in experiment [3] turned out to be 3.7 mg/kg.

On human platelet PLA2, `OC[C@H](Cc1ccc(O)cc1)NCCCCCCCCCCc1ccccc1` [Example 5, (S)-4-hydroxy-α-[(10-phenyldecyl)amino]benzenepropanol, hydrochloride] showed an IC50 of 48 µM.
